Measurements published in patent US7183276B2, “Azole compounds” (Takeda Pharmaceutical Company Limited, priority 2002, dated 2007).

Question: For `CCOP(=O)(CCc1ccc(NC(=O)CCCc2oc(-n3cnc4ccccc43)nc2-c2ccc(Cl)cc2)cc1)OCC`, which melting point is on record?
Answer: 116 to 117 °C

Question: For `CN(CCS(C)(=O)=O)C(=O)CCc1oc(-n2cnc3ccccc32)nc1-c1ccc(Cl)cc1` [Example 303, 3-[2-(1H-benzoimidazol-1-yl)-4-(4-chlorophenyl)-5-oxazolyl]-N-[2-(methylsulfonyl)ethyl]-N-methylpropanamide], which melting point is on record?
Answer: 141 to 142 °C

Question: Which melting point does the source give for `O=C(CCc1oc(-n2cnc3ccccc32)nc1-c1ccc(Cl)cc1)NCCc1ccccn1` [Example 92, 3-[2-(1H-benzimidazol-1-yl)-4-(4-chlorophenyl)-5-oxazolyl]-N-[2-(2-pyridinyl)ethyl]propionamide] here?
Answer: 150 to 151 °C

Question: With `CCCc1nc(-c2ccc(Cl)cc2)c(CCC(N)=O)o1` [Example 29, 3-[4-(4-chlorophenyl)-2-propyl-5-oxazolyl]propionamide] as the molecule, how does the melting point read?
Answer: 150 to 151 °C

Question: For `CN(C)c1ccc(NC(=O)Cc2ccc(NC(=O)CCc3oc(-n4cnc5ccccc54)nc3-c3ccc(Cl)cc3)cc2)cc1` [Example 140, 2-[4-(N-{3-[2-(1H-benzimidazol-1-yl)-4-(4-chlorophenyl)-5-oxazolyl]propanoyl}amino)phenyl]-N-[4-(dimethylamino)phenyl]acetamide], which melting point is on record?
Answer: 169 to 170 °C

Question: For `CCOP(=O)(Cc1ccc(NC(=O)Cc2oc(-c3ccccc3)nc2-c2ccc(Cl)cc2)cc1)OCC`, which melting point is on record?
Answer: 173 to 174 °C

Question: Which melting point does the source give for `O=C(CCc1oc(-n2cnc3ccccc32)nc1-c1ccc(Cl)cc1)NCc1cccc(-c2ccccc2)c1` [Example 177, 3-[2-(1H-benzimidazol-1-yl)-4-(4-chlorophenyl)-5-oxazolyl]-N-(3-phenylbenzyl)propionamide] here?
Answer: 201 to 202 °C

Question: With `O=C(CCc1oc(-n2cnc3ccccc32)nc1-c1ccc(Cl)cc1)NCc1ccccc1` [Example 132, 3-[2-(1H-benzimidazol-1-yl)-4-(4-chlorophenyl)-5-oxazolyl]-N-benzylpropionamide] as the molecule, how does the melting point read?
Answer: 205 to 206 °C

Question: With `NC(=O)CCc1oc(Sc2ncccn2)nc1-c1ccc(Cl)cc1` [Example 33, 3-[4-(4-chlorophenyl)-2-(2-pyrimidinylsulfanyl)-5-oxazolyl]propionamide] as the molecule, how does the melting point read?
Answer: 194 to 195 °C

Question: With `N#Cc1ccc(NC(=O)CCc2oc(-n3cnc4ccccc43)nc2-c2ccc(Cl)cc2)cc1` [Example 112, 3-[2-(1H-benzimidazol-1-yl)-4-(4-chlorophenyl)-5-oxazolyl]-N-(4-cyanophenyl)propionamide] as the molecule, how does the melting point read?
Answer: 216 to 217 °C

Question: With `O=C(CCc1oc(-n2cnc3ccccc32)nc1-c1ccccc1)N1CCC(O)CC1` [Example 247, 1-{3-[2-(1H-benzoimidazol-1-yl)-4-phenyl-5-oxazolyl]propanoyl}-4-piperidinol] as the molecule, how does the melting point read?
Answer: 157 to 158 °C

Question: With `O=C(CCc1oc(-n2cnc3ccccc32)nc1-c1ccc(Cl)cc1)NCc1ccccc1C(F)(F)F` [Example 157, 3-[2-(1H-benzimidazol-1-yl)-4-(4-chlorophenyl)-5-oxazolyl]-N-[2-(trifluoromethyl)benzyl]propionamide] as the molecule, how does the melting point read?
Answer: 208 to 209 °C

Question: Which melting point does the source give for `CC(C)(C)c1ccc(NC(=O)CCc2oc(-n3cnc4ccccc43)nc2-c2ccc(Cl)cc2)cc1` [Example 117, 3-[2-(1H-benzimidazol-1-yl)-4-(4-chlorophenyl)-5-oxazolyl]-N-(4-tert-butylphenyl)propionamide] here?
Answer: 219 to 220 °C

Question: For `CCOP(=O)(Cc1ccc(NC(=O)CCc2sc(NC(=O)c3ccccc3)nc2-c2ccc(Cl)cc2)cc1)OCC`, which melting point is on record?
Answer: 171 to 172 °C

Question: Which melting point does the source give for `CCOP(=O)(OCC)c1ccc(NC(=O)CCCc2oc(-n3cnc4ccccc43)nc2-c2ccc(Cl)cc2)cc1` here?
Answer: 162 to 163 °C

Question: Which melting point does the source give for `O=C(CCc1oc(-n2cnc3ccccc32)nc1-c1ccc(Cl)cc1)NCc1ccccc1Cl` [Example 134, 3-[2-(1H-benzimidazol-1-yl)-4-(4-chlorophenyl)-5-oxazolyl]-N-(2-chlorobenzyl)propionamide] here?
Answer: 222 to 223 °C

Question: Which melting point does the source give for `Cc1nccn1-c1nc(-c2ccc(Cl)cc2)c(CCC(=O)Nc2ccc(CC#N)cc2)o1` [Example 141, 3-[4-(4-chlorophenyl)-2-(2-methyl-1-imidazolyl)-5-oxazolyl]-N-[4-(cyanomethyl)phenyl]propionamide] here?
Answer: 187 to 188 °C

Question: Which melting point does the source give for `NC(=O)CCc1oc(N2CCOCC2)nc1-c1ccc(Cl)cc1` [Example 9, 3-[4-(4-chlorophenyl)-2-(4-morpholinyl)-5-oxazolyl]propionamide] here?
Answer: 180 to 181 °C

Question: For `Cc1ccc(CNC(=O)CCc2oc(-n3cnc4ccccc43)nc2-c2ccc(Cl)cc2)cc1` [Example 125, 3-[2-(1H-benzimidazol-1-yl)-4-(4-chlorophenyl)-5-oxazolyl]-N-(4-methylbenzyl)propionamide], which melting point is on record?
Answer: 241 to 242 °C

Question: With `NC(=O)CCc1oc(Cc2ccccc2)nc1-c1ccc(Cl)cc1` [Example 18, 3-[2-benzyl-4-(4-chlorophenyl)-5-oxazolyl]propionamide] as the molecule, how does the melting point read?
Answer: 169 to 170 °C

Question: Which melting point does the source give for `NC(=O)CCc1sc(-c2ccccc2)nc1-c1ccc(Cl)cc1` [Example 46, 3-[4-(4-chlorophenyl)-2-phenyl-5-thiazolyl]propionamide] here?
Answer: 175 to 176 °C

Question: Which melting point does the source give for `NC(=O)c1ccc(NC(=O)CCc2sc(-c3ccccc3)nc2-c2ccc(Cl)cc2)cc1` [Example 67, 4-({3-[4-(4-chlorophenyl)-2-phenyl-5-thiazolyl]propanoyl}amino)benzamide] here?
Answer: ≥ 300 °C (dec.)

Question: Which melting point does the source give for `NC(=O)CCc1oc(-c2cccs2)nc1-c1ccc(Cl)cc1` [Example 25, 3-[4-(4-chlorophenyl)-2-(2-thienyl)-5-oxazolyl]propionamide] here?
Answer: 226 to 227 °C

Question: Which melting point does the source give for `COC(=O)c1ccc(NC(=O)CCc2oc(-n3cnc4ccccc43)nc2-c2ccc(Cl)cc2)cc1` [Example 91, 3-[2-(1H-benzimidazol-1-yl)-4-(4-chlorophenyl)-5-oxazolyl]-N-[4-(methoxycarbonyl)phenyl]propionamide] here?
Answer: 249 to 250 °C

Question: Which melting point does the source give for `CCOP(=O)(Cc1ccc(NC(=O)CCc2oc(-n3cnc4ccccc43)nc2-c2ccc(F)cc2)cc1)OCC` here?
Answer: 95 to 96 °C

Question: Which melting point does the source give for `CC(C)(C)c1ccc(CNC(=O)CCc2oc(-n3cnc4ccccc43)nc2-c2ccc(Cl)cc2)cc1` [Example 144, 3-[2-(1H-benzimidazol-1-yl)-4-(4-chlorophenyl)-5-oxazolyl]-N-[4-tert-butylbenzyl]propionamide] here?
Answer: 170 to 171 °C

Question: Which melting point does the source give for `NC(=O)CCc1oc(Sc2ccccn2)nc1-c1ccc(Cl)cc1` [Example 36, 3-[4-(4-chlorophenyl)-2-(2-pyridinylsulfanyl)-5-oxazolyl]propionamide] here?
Answer: 162 to 163 °C

Question: For `N#CCc1ccc(NC(=O)CCc2oc(-c3ccccc3)nc2-c2ccc(Cl)cc2)cc1` [Example 105, 3-[4-(4-chlorophenyl)-2-phenyl-5-oxazolyl]-N-[4-(cyanomethyl)phenyl]propionamide], which melting point is on record?
Answer: 212 to 214 °C

Question: Which melting point does the source give for `CN(C)c1ccc(NC(=O)CCc2oc(-n3cnc4ccccc43)nc2-c2ccc(Cl)cc2)cc1` [Example 130, 3-[2-(1H-benzimidazol-1-yl)-4-(4-chlorophenyl)-5-oxazolyl]-N-[4-(dimethylamino)phenyl]propionamide] here?
Answer: 212 to 214 °C

Question: With `O=C(CCc1oc(-n2cnc3ccccc32)nc1-c1ccc(Cl)cc1)Nc1ccc(Cl)cc1` [Example 79, 3-[2-(1H-benzimidazol-1-yl)-4-(4-chlorophenyl)-5-oxazolyl]-N-(4-chlorophenyl)propionamide] as the molecule, how does the melting point read?
Answer: 248 to 249 °C
